How the values were obtained:
Test in all cases: relative viability (nuclei count vs DMSO), 5 days (fraction); higher = more cells survive
[1] = tested on: 201T
Outline: (§1)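 Five library-drug doses in √10 steps were combined with a fixed anchor-drug dose, or a single drug was given alone, by pin tool to lung cancer cell lines in 1536-well plates the day after seeding. Nuclei were stained and counted after 5 days. Relative viability is the nuclei count in treated wells over that in vehicle wells, taken as the median of duplicate plates.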

[2] = tested on: ABC-1
Outline: as §1

[3] = tested on: BEN
Outline: as §1

[4] = tested on: HCC-366
Outline: as §1

[5] = tested on: HCC-44
Outline: as §1

[6] = tested on: HCC-78
Outline: as §1

[7] = tested on: LK-2
Outline: as §1

[8] = tested on: LOU-NH91
Outline: as §1

[9] = tested on: NCI-H1355
Outline: as §1

[10] = tested on: NCI-H1666
Outline: as §1

[11] = tested on: NCI-H1734
Outline: as §1

[12] = tested on: NCI-H1755
Outline: as §1

[13] = tested on: NCI-H2347
Outline: as §1

[14] = tested on: NCI-H2405
Outline: as §1

[15] = tested on: NCI-H358
Outline: as §1

[16] = tested on: NCI-H727
Outline: as §1

[17] = tested on: NCI-H838
Outline: as §1

[18] = tested on: NCI-H1650
Outline: as §1

[19] = tested on: NCI-H2009
Outline: as §1

[20] = tested on: NCI-H2228
Outline: as §1

[21] = tested on: NCI-H520
Outline: as §1

[22] = tested on: SW 1573
Outline: as §1

[23] = tested on: UMC-11
Outline: as §1

SMILES: O=C(O)CCCCC(CCSCc1ccccc1)SCc1ccccc1 (stereo not given) [CPI-613] + NC(=O)Nc1cc(-c2cccc(F)c2)sc1C(=O)N[C@H]1CCCNC1 [AZD7762] (partner 0.2 µM)
- relative viability ([1]; first compound 5 µM): 0.581
- relative viability ([1]; first compound 15.81 µM): 0.62
- relative viability ([1]; first compound 50 µM): 0.66
- relative viability ([1]; first compound 158.11 µM): 0.318
- relative viability ([1]; first compound 500 µM): 0.564
- relative viability ([2]; first compound 5 µM): 1.18
- relative viability ([2]; first compound 15.81 µM): 0.696
- relative viability ([2]; first compound 158.11 µM): 0.471
- relative viability ([2]; first compound 500 µM): 0.71
- relative viability ([3]; first compound 5 µM): 0.653
- relative viability ([3]; first compound 15.81 µM): 0.485
- relative viability ([3]; first compound 50 µM): 0.697
- relative viability ([3]; first compound 158.11 µM): 0.672
- relative viability ([3]; first compound 500 µM): 0.526
- relative viability ([4]; first compound 5 µM): 0.256
- relative viability ([4]; first compound 15.81 µM): 0.203
- relative viability ([4]; first compound 50 µM): 0.282
- relative viability ([4]; first compound 158.11 µM): 0.138
- relative viability ([4]; first compound 500 µM): 0.0061
- relative viability ([5]; first compound 5 µM): 1.03
- relative viability ([5]; first compound 15.81 µM): 0.966
- relative viability ([5]; first compound 50 µM): 1.01
- relative viability ([5]; first compound 158.11 µM): 0.967
- relative viability ([5]; first compound 500 µM): 0.66
- relative viability ([6]; first compound 15.81 µM): 0.606
- relative viability ([6]; first compound 50 µM): 0.674
- relative viability ([6]; first compound 158.11 µM): 0.543
- relative viability ([6]; first compound 500 µM): 0.738
- relative viability ([7]; first compound 5 µM): 0.408
- relative viability ([7]; first compound 15.81 µM): 0.359
- relative viability ([7]; first compound 50 µM): 0.343
- relative viability ([7]; first compound 158.11 µM): 0.355
- relative viability ([7]; first compound 500 µM): 0.289
- relative viability ([8]; first compound 5 µM): 0.74
- relative viability ([8]; first compound 15.81 µM): 0.7
- relative viability ([8]; first compound 50 µM): 0.753
- relative viability ([8]; first compound 158.11 µM): 0.633
- relative viability ([8]; first compound 500 µM): 0.241
- relative viability ([9]; first compound 5 µM): 0.721
- relative viability ([9]; first compound 15.81 µM): 0.741
- relative viability ([9]; first compound 50 µM): 0.772
- relative viability ([9]; first compound 158.11 µM): 0.52
- relative viability ([9]; first compound 500 µM): 0.185
- relative viability ([10]; first compound 5 µM): 0.911
- relative viability ([10]; first compound 15.81 µM): 0.821
- relative viability ([10]; first compound 50 µM): 0.761
- relative viability ([10]; first compound 158.11 µM): 0.376
- relative viability ([10]; first compound 500 µM): 0.553
- relative viability ([11]; first compound 5 µM): 0.505
- relative viability ([11]; first compound 15.81 µM): 0.482
- relative viability ([11]; first compound 50 µM): 0.413
- relative viability ([11]; first compound 158.11 µM): 0.272
- relative viability ([11]; first compound 500 µM): 0.0982
- relative viability ([12]; first compound 5 µM): 0.383
- relative viability ([12]; first compound 15.81 µM): 0.4
- relative viability ([12]; first compound 50 µM): 0.319
- relative viability ([12]; first compound 158.11 µM): 0.397
- relative viability ([12]; first compound 500 µM): 0.375
- relative viability ([13]; first compound 5 µM): 0.735
- relative viability ([13]; first compound 15.81 µM): 0.787
- relative viability ([13]; first compound 50 µM): 0.715
- relative viability ([13]; first compound 158.11 µM): 0.718
- relative viability ([13]; first compound 500 µM): 0.435
- relative viability ([14]; first compound 5 µM): 0.755
- relative viability ([14]; first compound 15.81 µM): 0.63
- relative viability ([14]; first compound 50 µM): 0.736
- relative viability ([14]; first compound 158.11 µM): 0.557
- relative viability ([14]; first compound 500 µM): 0.235
- relative viability ([15]; first compound 5 µM): 0.569
- relative viability ([15]; first compound 15.81 µM): 0.451
- relative viability ([15]; first compound 50 µM): 0.474
- relative viability ([15]; first compound 158.11 µM): 0.438
- relative viability ([15]; first compound 500 µM): 0.56
- relative viability ([16]; first compound 5 µM): 0.617
- relative viability ([16]; first compound 15.81 µM): 0.547
- relative viability ([16]; first compound 50 µM): 0.669
- relative viability ([16]; first compound 158.11 µM): 0.555
- relative viability ([16]; first compound 500 µM): 0.561
- relative viability ([17]; first compound 5 µM): 0.977
- relative viability ([17]; first compound 15.81 µM): 0.935
- relative viability ([17]; first compound 50 µM): 0.893
- relative viability ([17]; first compound 158.11 µM): 0.844
- relative viability ([17]; first compound 500 µM): 0.912

SMILES: Cc1cnc(-c2cnc(NCCNc3ccc(C#N)cn3)nc2-c2ccc(Cl)cc2Cl)[nH]1 + CC(=O)Nc1cccc(-n2c(=O)n(C3CC3)c(=O)c3c(Nc4ccc(I)cc4F)n(C)c(=O)c(C)c32)c1 [Trametinib] (partner 0.02 µM)
- relative viability ([1]; first compound 0.08 µM): 0.746
- relative viability ([1]; first compound 0.8 µM): 0.707
- relative viability ([1]; first compound 2.53 µM): 0.753
- relative viability ([3]; first compound 0.08 µM): 1.25
- relative viability ([3]; first compound 0.253 µM): 0.879
- relative viability ([3]; first compound 0.8 µM): 1.04
- relative viability ([3]; first compound 2.53 µM): 1.42
- relative viability ([4]; first compound 0.08 µM): 0.397
- relative viability ([4]; first compound 0.253 µM): 0.308
- relative viability ([4]; first compound 0.8 µM): 0.292
- relative viability ([4]; first compound 2.53 µM): 0.326
- relative viability ([5]; first compound 0.08 µM): 1.13
- relative viability ([5]; first compound 0.253 µM): 1.02
- relative viability ([5]; first compound 0.8 µM): 1.01
- relative viability ([5]; first compound 2.53 µM): 1.04
- relative viability ([6]; first compound 0.08 µM): 0.876
- relative viability ([6]; first compound 0.253 µM): 0.669
- relative viability ([6]; first compound 0.8 µM): 0.621
- relative viability ([6]; first compound 2.53 µM): 0.828
- relative viability ([7]; first compound 0.08 µM): 0.834
- relative viability ([7]; first compound 0.253 µM): 0.833
- relative viability ([7]; first compound 0.8 µM): 0.841
- relative viability ([7]; first compound 2.53 µM): 0.955
- relative viability ([8]; first compound 0.08 µM): 0.799
- relative viability ([8]; first compound 0.253 µM): 0.84
- relative viability ([8]; first compound 0.8 µM): 0.843
- relative viability ([8]; first compound 2.53 µM): 0.856
- relative viability ([9]; first compound 0.08 µM): 0.396
- relative viability ([9]; first compound 0.253 µM): 0.384
- relative viability ([9]; first compound 0.8 µM): 0.41
- relative viability ([9]; first compound 2.53 µM): 0.409
- relative viability ([18]; first compound 0.08 µM): 0.659
- relative viability ([18]; first compound 0.253 µM): 0.47
- relative viability ([18]; first compound 0.8 µM): 0.365
- relative viability ([18]; first compound 2.53 µM): 0.469
- relative viability ([10]; first compound 0.08 µM): 0.864
- relative viability ([10]; first compound 0.253 µM): 0.797
- relative viability ([10]; first compound 0.8 µM): 0.957
- relative viability ([10]; first compound 2.53 µM): 0.821
- relative viability ([11]; first compound 0.08 µM): 0.801
- relative viability ([11]; first compound 0.253 µM): 0.641
- relative viability ([11]; first compound 0.8 µM): 0.775
- relative viability ([11]; first compound 2.53 µM): 0.72
- relative viability ([12]; first compound 0.08 µM): 0.865
- relative viability ([12]; first compound 0.253 µM): 0.755
- relative viability ([12]; first compound 0.8 µM): 0.771
- relative viability ([12]; first compound 2.53 µM): 0.771
- relative viability ([19]; first compound 0.08 µM): 0.372
- relative viability ([19]; first compound 0.253 µM): 0.273
- relative viability ([19]; first compound 0.8 µM): 0.293
- relative viability ([19]; first compound 2.53 µM): 0.384
- relative viability ([20]; first compound 0.08 µM): 0.526
- relative viability ([20]; first compound 0.253 µM): 0.511
- relative viability ([20]; first compound 0.8 µM): 0.506
- relative viability ([20]; first compound 2.53 µM): 0.42
- relative viability ([13]; first compound 0.08 µM): 0.296
- relative viability ([13]; first compound 0.253 µM): 0.272
- relative viability ([13]; first compound 0.8 µM): 0.297
- relative viability ([13]; first compound 2.53 µM): 0.287
- relative viability ([14]; first compound 0.08 µM): 0.755
- relative viability ([14]; first compound 0.253 µM): 0.634
- relative viability ([14]; first compound 0.8 µM): 0.611
- relative viability ([14]; first compound 2.53 µM): 0.439
- relative viability ([15]; first compound 0.08 µM): 0.147
- relative viability ([15]; first compound 0.253 µM): 0.143
- relative viability ([15]; first compound 0.8 µM): 0.136
- relative viability ([15]; first compound 2.53 µM): 0.13
- relative viability ([21]; first compound 0.08 µM): 0.781
- relative viability ([21]; first compound 0.253 µM): 0.614
- relative viability ([21]; first compound 0.8 µM): 0.788
- relative viability ([21]; first compound 2.53 µM): 0.706
- relative viability ([16]; first compound 0.08 µM): 0.384
- relative viability ([16]; first compound 0.253 µM): 0.375
- relative viability ([16]; first compound 0.8 µM): 0.404
- relative viability ([16]; first compound 2.53 µM): 0.393
- relative viability ([17]; first compound 0.08 µM): 0.577
- relative viability ([17]; first compound 0.253 µM): 0.499
- relative viability ([17]; first compound 0.8 µM): 0.591
- relative viability ([17]; first compound 2.53 µM): 0.685
- relative viability ([22]; first compound 0.08 µM): 0.718
- relative viability ([22]; first compound 0.253 µM): 0.537
- relative viability ([22]; first compound 0.8 µM): 0.575
- relative viability ([22]; first compound 2.53 µM): 0.337
- relative viability ([23]; first compound 0.08 µM): 0.891
- relative viability ([23]; first compound 0.253 µM): 0.525
- relative viability ([23]; first compound 0.8 µM): 0.377
- relative viability ([23]; first compound 2.53 µM): 0.82

Reference: the supplement of paper PMC10307832
